The text below walks through data of US20250179033A1 (priority 2021, published 2025).

As usually defined, the IC50 is the point on the concentration scale where inhibition reaches its midpoint. The term CC50 denotes the concentration at which the toxic effect on the cells reaches its halfway point.

One data set has as its system HIV-1 IIIB (wild-type). Nature of the data set: HIV inhibition assay in TZM-bl cells, wild-type. The format is cell-based. As to conditions: Human immunodeficiency virus 1, IIIB; for IC50: read-out: IC50 (TZM, WT). The protocol:
(§1) Cells and virus culture: TZM-bl cells (42), HIV-1 IIIB virus (43-45) and HIV-1 IIIB (A17 variant) virus (46) as well are the NNRTI resistant mutants (strain NL4-3) (47) were obtained from the NIH HIV Reagent Program. H9 [derivative of HuT 78]cells (ATCC® HTB176™) were obtained from the American Type Culture Collection (Manassas, Virginia, United States of America). These viruses were grown in H9 cells to high titer, which was tested using a HIV p24 (high sensitivity) The detection kit used was sold under the tradename ALPHALISA® Detection Kit (PerkinElmer, Waltham, Massachusetts, United States of America). The viruses were concentrated using Lenti-X Concentrator (Takara Bio USA, Inc., Mountain View, California, United States of America). Infections of TZM-bl cells with either virus was facilitated with 15 μg/mL DEAE-dextran.
(§2) Compounds were serially diluted starting with 10 mM stocks in DMSO. DMSO concentrations were kept the same for all dilutions used within an assay (either 0.005% or 0.05% depending on highest concentration used). Duplicate 96-well plates were set up with 25 μL compound dilution, 25 μL virus, and 50 μL TZM-bl cells (2×10^5/mL) with DEAE-dextran and incubated at 37° C. 5% CO2 for 48 hr. All compounds were tested in triplicate, with single wells of efavirenz dilutions on each plate. All plates had 3-5 control wells without compound, 1 control well with no cells, and 1 control well with a highly toxic level of DMSO (9%). Inhibition assays were set up in clear tissue-culture treated plates with lysates moved to black assay plates or were set up in black tissue culture-treated plates. Medium was removed and the cells were lysed with Glo Lysis Buffer (Promega, Madison, Wisconsin, United States of America). Luciferase Assay System reagent (Promega, Madison, Wisconsin, United States of America) was added to cells and relative light units (RLU) was measured using an EnSpire instrument (PerkinElmer, Waltham, Massachusetts, United States of America). Toxicity assays were set up in clear tissue culture-treated plates. CellTiter-Blue Cell Viability Assay reagent (Promega) was added to the wells after 46 hr incubation, followed by 2 hr incubation. Sodium lauryl sulfate was added to 1.5% to stop the reaction and the plates were measured for fluorescence (560 nmEx/590 nmEm) using an EnSpire instrument (PerkinElmer, Waltham, Massachusetts, United States of America).

Data set [1] deals with HIV-1 IIIB A17 variant (Y181C/K103N). Nature of the data set: HIV inhibition assay in TZM-bl cells, A17 variant. The note with it: Human immunodeficiency virus 1, IIIB, TZM-bl. The format is cell-based. The protocol:
as §1, §2

Data set [2] is described as follows: Toxicity assay in TZM-bl cells. The format is cell-based. As to conditions: human. The protocol: as §2
The subject of another data set is TZM-bl cells. Nature of the data set: Toxicity assay in TZM-bl cells. The format is cell-based. As for the experimental part:
as §2

For data set [3], the target named is T1, HIV I reverse transcriptase (Human immunodeficiency virus type 1 group M subtype B, UniProt P03366).
T1 construct: purchased Roche
Nature of the data set: Reverse transcriptase inhibition assay (Roche kit, ELISA). The format is biochemical. As for the experimental part:
NNRTI assay methods: Inhibition of HIV I reverse transcriptase was assessed via a kit from Roche (Indianapolis-Marion County, Indiana, United States of America) using the manufacture's protocol (500 μM final reverse transcriptase reaction amount). […] DMSO concentrations were kept the same for all dilutions used within an assay (0.05%). Final compound concentrations ranged from 5000 nM-0.05 nM with 2-fold serial dilutions. 96-well plates were set up with 20 μL compound dilution, 20 μL reverse transcriptase, and 20 μL template/nucleotides and incubated at 37° C. 5% CO2 for 1 hr in a reaction plate. 50 μL of each reaction was then transferred to a streptavidin conjugated 96-well plate and an ELISA assay was run based on manufacture's protocol. All compounds were tested in sextuplicate, with single wells of efavirenz dilutions on each plate.
A general note: In an ELISA, binding on a coated surface is turned into a signal by an enzyme label.

Data set [4] deals with primary mouse neuron cultures. The data set can be described thus: Calcium imaging in primary neurons. The format is cell-based. As to conditions: 1 μM. The protocol: The direct effects of the antiretroviral compounds were tested on primary rat and mouse neurons cultured on coverslips. Neurons at 14-18 days in vitro were loaded with the calcium indicator, Fluo-4 AM (2 μM, Molecular Probes, Inc., Eugene, Oregon, United States of America) in aCSF (aCSF: NaCl […], KCl 5.0 mM, CaCl2 2.3 mM, MgCl2 1.3 mM, glucose 20 mM). After 30 minutes of dye loading, the coverslip was transferred to a specialized stage for imaging. Cells were maintained in aCSF and time-lapse digital images were automatically captured on an Olympus IX71 microscope using software sold under the tradename METAMORPH® (Molecular Devices, San Jose, California, United States of America). Images were captured with a 40 msec exposure every 6 seconds for 6 minutes to assess acute effects and every minute for 60 minutes to assess delayed effects. Three pre-stimulation measurements were taken to establish basal levels of fluorescence at the beginning of each experiment. After collection of the third image, neurons the antiretroviral compound or vehicle diluted from the stock vial into aCSF was added to the neurons at the indicated final concentration. Baseline fluorescence was subtracted to correct for cell-to-cell differences in dye loading and intrinsic fluorescence. Changes in fluorescence at each time point were averaged across all cells from at least triplicate runs to provide an indication of the “typical” response. In some cases, individual cell response patterns are shown where the average masked important cell-specific profiles. All compounds were tested at 1 μM.

[5] abbreviates: Table 3, TZM-bl, ± SEM, minimum 6 replicates.
Setting [6] is: read-out: IC50 (TZM, A17), Table 3, TZM-bl, ± SEM, minimum 6 replicates.
[7] abbreviates: read-out: IC50 (TZM, A17), Table 4, TZM-bl.

Like-named read-outs stand apart in the source and are kept apart here. Bounds are passed on as bounds.

Regarding `N#Cc1ccc2c(S(=O)(=O)n3nc(Nc4ccc(C#N)c(C#N)c4)nc3N)cccc2c1` [Compound 14, 4-[[5-amino-1-[(6-cyano-1-naphthyl)sulfonyl]-1,2,4-triazol-3-yl]amino]phthalonitrile], the IC50 with HIV-1 IIIB (wild-type) (setting [5]) is 0.684 ± 0.077 nM; in the data set on HIV-1 IIIB (wild-type) (Table 4, TZM-bl) it was 0.318 nM; in data set [1] (setting [6]), 37.2 ± 15.4 nM; in data set [1] (setting [7]) it was 31.7 nM. The molecule also displayed a half-maximal cytotoxic concentration (CC50) at 48 h in data set [2] of 31800 nM. Moreover, the “Qualitative Cell Toxicity within inhibition range” value in the data set on TZM-bl cells is “None”. Besides, the “Quantitative Cell Toxicity” value with TZM-bl cells (human, 48 h) was determined as 1350 nM. Besides, the EC50 in data set [3] turned out to be 1350 nM.

Take `N#Cc1ccc2c(S(=O)(=O)n3nc(Nc4ccc(C#N)c(Cl)c4)nc3N)cccc2c1` [Compound 5, 5-[[5-amino-3-(3-chloro-4-cyano-anilino)-1,2,4-triazol-1-yl]sulfonyl]naphthalene-2-carbonitrile]: the 50% inhibitory concentration (IC50) amounted to 0.42 ± 0.0777 nM with HIV-1 IIIB (wild-type) (setting [5]); 0.428 nM in the data set on HIV-1 IIIB (wild-type) (Table 4, TZM-bl); 39.6 ± 18.2 nM in data set [1] (setting [6]); 15.7 nM in data set [1] (setting [7]). Also, the CC50 at 48 h in data set [2] (Table 4, TZM-bl, read-out: CC50 (TZM)) came to 6010 nM. In addition, in the data set on TZM-bl cells (Table 3, TZM-bl), the “Qualitative Cell Toxicity within inhibition range” value is listed as “None”. For the same molecule, the “Quantitative Cell Toxicity” value in the data set with TZM-bl cells (Table 3, TZM-bl) was determined as 1710 nM. In data set [3], the EC50 was 1710 nM.

Consider `N#C/C=C/c1ccc2c(S(=O)(=O)n3nc(Nc4ccc(CC#N)cc4)nc3N)cccc2c1` [Compound 21, 3-[5-[[5-amino-3-[4-(cyanomethyl)anilino]-1,2,4-triazol-1-yl]sulfonyl]-2-naphthyl]prop-2-enenitrile], for which the IC50 in the data set on HIV-1 IIIB (wild-type) (setting [5]) was 0.255 ± 0.035 nM; in the data set on HIV-1 IIIB (wild-type) (Table 4, TZM-bl), 0.228 nM; in data set [1] (setting [6]), 5.42 ± 1.39 nM; in data set [1] (setting [7]), 13.8 nM. Further, the 50% cytotoxic concentration (CC50) at 48 h in data set [2] is 747 nM. In the data set with TZM-bl cells, the “Qualitative Cell Toxicity within inhibition range” value is given as “None”. Besides, the “Quantitative Cell Toxicity” value in the data set on TZM-bl cells (human, 48 h) was determined as 747 nM. In data set [3], this molecule registered an EC50 of 10900 nM.

For the molecule `O=C1Nc2ccc(Cl)cc2[C@@](C#CC2CC2)(C(F)(F)F)O1` [Efavirenz, efavirenz], in the data set with HIV-1 IIIB (wild-type) (Table 4, TZM-bl), the IC50 came out at 0.658 nM. Besides, in data set [1] (setting [7]), the concentration for half-maximal inhibition (IC50) is 17 nM. In addition, in data set [2] (TZM-bl cells, Table 4, TZM-bl, read-out: CC50 (TZM)), the CC50 at 48 h is greater than 100000 nM. Besides, in data set [4], the “acute spike frequency / acute signaling” value is listed as “trend towards a reduced acute signaling”; the delayed spike frequency entry is “increase”; the total calcium accumulation result is recorded as “most dramatic increase”; the “toxic effects by calcium imaging, overall” value is reported as “seemed to have some toxic effects”.

As to `N#Cc1ccc(Nc2nc(N)n(S(=O)(=O)c3cccc4cc(C#N)ccc34)n2)cc1` [Compound 2, 5-[[5-amino-3-(4-cyanoanilino)-1,2,4-triazol-1-yl]sulfonyl]naphthalene-2-carbonitrile], the IC50 in the data set on HIV-1 IIIB (wild-type) (setting [5]) was determined as 1.11 ± 0.198 nM; with HIV-1 IIIB (wild-type) (Table 4, TZM-bl) it was 0.316 nM; in data set [1] (setting [6]) it was 55 ± 4.01 nM; in data set [1] (setting [7]) it was 24.4 nM. Moreover, the cytotoxic concentration (CC50) at 48 h in data set [2] amounted to 7550 nM. Besides, the “Qualitative Cell Toxicity within inhibition range” value in the data set with TZM-bl cells was “None”. In addition, the “Quantitative Cell Toxicity” value in the data set with TZM-bl cells (human, 48 h) came out at 578 nM. The same molecule returned an EC50 in data set [3] of 578 nM.

With `Cc1cc(/C=C/C#N)cc(C)c1Nc1ccnc(Nc2ccc(C#N)cc2)n1` [Rilpivirine, rilpivirine, reference compound], the 50% inhibitory concentration (IC50) in the data set with HIV-1 IIIB (wild-type) (Table 4, TZM-bl) came out at 0.351 nM; in data set [1] (setting [7]), 0.817 nM; in data set [3], 1180 nM. Also, the EC50 was found to be 0.35 nM with HIV-1 IIIB (wild-type) (text b494, FIG. 2F, read-out: antiviral activity against wildtype, EC50); 1.58 nM in data set [1] (read-out: activity against the A17 double mutant (Y181C/K103N), EC50); 376 nM in data set [3]. The same molecule came in with a cytotoxic concentration (CC50) at 48 h in data set [2] of 112000 nM. Also, the “acute spike frequency / acute signaling” value in data set [4] was “decrease”.

`CC(=O)Nc1nc(C)c(S(=O)(=O)n2nc(Nc3cc(Cl)c(Cl)cc3Cl)nc2N)s1` [Compound 44, N-[5-[[5-amino-3-(2,4,5-trichloroanilino)-1,2,4-triazol-1-yl]sulfonyl]-4-methyl-thiazol-2-yl]acetamide]: the half-maximal inhibitory concentration (IC50) in the data set with HIV-1 IIIB (wild-type) (setting [5]) is 165 ± 121 nM; in data set [1] (setting [6]), greater than 1000 nM. In addition, in the data set with TZM-bl cells, the “Qualitative Cell Toxicity within inhibition range” value is on record as “None”.

Regarding `Nc1nc(Nc2ccc(Cl)cc2)nn1S(=O)(=O)c1ccc(Br)cc1F` [Compound 7, 1-(4-bromo-2-fluoro-phenyl)sulfonyl-N3-(4-chlorophenyl)-1,2,4-triazole-3,5-diamine], the values for the IC50 (in the data set with HIV-1 IIIB (wild-type) (setting [5]); in data set [1] (setting [6])) were 19.2 ± 2.83 nM and 562 nM, respectively. Also, the “Qualitative Cell Toxicity within inhibition range” value in the data set with TZM-bl cells is on record as “None”.

Regarding `Nc1nc(Nc2ccc(Cl)cc2)nn1S(=O)(=O)c1ccc(Br)s1` [Compound 40, 1-[(5-bromo-2-thienyl)sulfonyl]-N3-(4-chlorophenyl)-1,2,4-triazole-3,5-diamine], the half-maximal inhibitory concentration (IC50) in the data set on HIV-1 IIIB (wild-type) (setting [5]) is 15.1 ± 3.12 nM; in data set [1] (setting [6]), greater than 1000 nM. Further, the “Qualitative Cell Toxicity within inhibition range” value in the data set with TZM-bl cells is “None”.

Take `Nc1nc(Nc2ccc(Cl)cc2)nn1S(=O)(=O)c1ccc(F)c(F)c1F` [Compound 39, N3-(4-chlorophenyl)-1-(2,3,4-trifluorophenyl)sulfonyl-1,2,4-triazole-3,5-diamine]: the figures for the IC50 (in the data set with HIV-1 IIIB (wild-type) (setting [5]); in data set [1] (setting [6])) were 575 ± 104 nM and greater than 1000 nM, respectively. In the data set with TZM-bl cells, the “Qualitative Cell Toxicity within inhibition range” value is recorded as “None”.

On to `N#CCc1ccc2c(S(=O)(=O)n3nc(Nc4ccc(C#N)c(Cl)c4)nc3N)cccc2c1` [Compound 16, 4-[[5-amino-1-[[6-(cyanomethyl)-1-naphthyl]sulfonyl]-1,2,4-triazol-3-yl]amino]-2-chloro-benzonitrile], for which the IC50 in the data set on HIV-1 IIIB (wild-type) was 0.598 ± 0.105 nM; in data set [1] (setting [6]), 153 ± 59.2 nM. Also, in the data set on TZM-bl cells (Table 3, TZM-bl), the “Qualitative Cell Toxicity within inhibition range” value is recorded as “None”.

Regarding `Nc1nc(Nc2ccc(Cl)c(Cl)c2)nn1S(=O)(=O)c1cccc2ccccc12` [Compound 22, N3-(3,4-dichlorophenyl)-1-(1-naphthylsulfonyl)-1,2,4-triazole-3,5-diamine], the half-inhibitory concentration (IC50) in the data set on HIV-1 IIIB (wild-type) is 4.68 ± 0.572 nM; in data set [1] (setting [6]) it was greater than 1000 nM. The “Qualitative Cell Toxicity within inhibition range” value in the data set with TZM-bl cells (Table 3, TZM-bl) is given as “None”.
